Measured values: patent US7420056B2, “Substituted bicyclic imidazo-3-ylamine compounds” (Gruenenthal GmbH, priority 2004, dated 2008)

Assays:
[1] = test system: neuropathic pain in rats (cold allodynia); test: Neuropathic pain in rats, Bennett model (chronic constriction injury), cold allodynia; assay type: in vivo; settings: rat, p.o., in words
Text: 2. Neuropathic Pain in Rats Efficacy against neuropathic pain was investigated in the Bennett model (chronic constriction injury; Bennett and Xie, 1988, Pain 33: 87-107). The corresponding parts of the literature are hereby deemed to be part of the present disclosure. Sprague-Dawley rats weighing 140-160 g are provided under Nembutal anaesthesia with four loose ligatures of the right ischial nerve. On the paw innervated by the damaged nerve, the animals develop hypersensitivity which, after one week's convalescence, is quantified over a period of approx. four weeks by means of a cold metal plate at 4° C. (cold allodynia). The animals are observed on this plate for a period of 2 min. and the number of withdrawal responses by the damaged paw is measured. […] The significance of an antiallodynic action is determined with reference to the AUC values by means of a paired T-test (*0.05≧p>0.01; **0.01≧p>0.001; ***p≦0.001; Armitage and Berry, 1987, Stat. Methods in Medical Research, London: Blackwell Scientific Publications).

male Sprague-Dawley rats = test: Elevated plus maze (EPM) model, anxiolytic effect; assay type: in vivo; settings: rat, 60 min after p.o. administration, in words
Protocol: 3. “Elevated Plus Maze” Model
Compounds are tested for a possible anxiolytic effect in the “elevated plus maze” (EPM) model. The tests are carried out on male Sprague-Dawley rats (200-250 g) using 2 “elevated plus mazes” (Med Associates) with electronically controlled infrared photobeams for determining the location of the animals in the maze. Each maze has 2 open and 2 closed arms and a central platform. The edges of the open arms are delimited by narrow strips. The entire maze is mounted on a metal stand.
At the beginning of a 5 minute test, each animal is individually placed on the central platform with its head in the direction of a closed arm.
The following parameters are determined or calculated and evaluated:
the number and percentage of entries into the open and closed arms,
and the percentage of time spent in the open and closed arms and on the central platform.
The data are analysed by means of single factor ANOVA (comparison of treatment groups vs. vehicle group). The significance level is set at p<0.05. All groups have a size of N=10.
The test is also described in Hogg, S. (1996) A review of the validity and variability of the elevated plus-maze as an animal model of anxiety. Pharmacol. Biochem. Behav. 54, 21-30 and Rodgers, R. J., Cole, J. C. (1994) The elevated plus-maze: pharmacology, methodology and ethology, in: Cooper, S. J., Hendrie, C. […]

CC(C)(C)Nc1c(-c2ccc(C#Cc3ccccn3)s2)nc2ccccn12.Cl [Example 192, N-tert-butyl-2-(5-(pyridin-2-ylethynyl)thiophen-2-yl)imidazo[1,2-a]pyridin-3-amine hydrochloride]
antiallodynic action [1]: pronounced, long-lasting antiallodynic action
anxiolytic effect (male Sprague-Dawley rats): dose-dependent anxiolytic effect
